Data: patent US7626044B2, “Triptolide derivatives and their uses” (priority 2002, dated 2009)
pIC50: −log10 of the molar value. Where two headings read alike, the source gives them in different places.

Experiments:
[1] = tested on: DNFB-induced mouse DTH response; assay: DNFB-induced mouse delayed type hypersensitivity response (DTH); type: in vivo; conditions: p.o.; for Right ear: control 33.7; for Ear swelling: control 41.5
Method: Female Balb/c mice (age of 6-8 wk) were randomly divided into groups and immunized with 20 μl 0.5% DNFB solution in absolute acetone-olive oil (4:1) on each hind foot on day 0 and 1;
7-9 days after the initial immunization, mice were boosted with 10 μl 0.4% DNFB on both sides of the left ear, whereas the right ear was treated with vehicle alone;
Compounds were administered intraperitoneally (i.p.) or orally (p.o.) to the mice 1 h before DNFB booster immunization and 12 h later.
Ear swelling and other indexes were assessed 24-48 h after booster immunization.
Note: Female ICR mice (age of 6-8 wk) were immunized with 0.7% DNFB solution and boosted with 0.6% DNFB solution.

[2] = tested on: anti-SRBC specific antibodies production by B lymphocytes; type: in vivo, mouse; conditions: ICR mice
[3] = tested on: HL-60 (human myeloblastic); assay: Tumor cell proliferation, HL-60; type: cell-based; conditions: read-out: Inhibitory effect on tumor cell proliferation IC50
[4] = tested on: A-549 (human lung carcinoma); assay: Tumor cell proliferation, A-549; type: cell-based; conditions: read-out: Inhibitory effect on tumor cell proliferation IC50
[5] = tested on: MKN-28 (human gastric cancer); assay: Tumor cell proliferation, MKN-28; type: cell-based; conditions: read-out: Inhibitory effect on tumor cell proliferation IC50
[6] = tested on: SGC-7901 (human gastric adenocarcinoma cell); assay: Tumor cell proliferation, SGC-7901; type: cell-based; conditions: read-out: Inhibitory effect on tumor cell proliferation IC50
[7] = tested on: MCF-7 (human breast cancer cell); assay: Tumor cell proliferation, MCF-7; type: cell-based; conditions: read-out: Inhibitory effect on tumor cell proliferation IC50
[8] = Table 10, ICR mice, dosage 0.04 mg/kg
[9] = Table 10, ICR mice, dosage 0.2 mg/kg
[10] = Table 10, ICR mice, dosage 1 mg/kg

Structure (SMILES): CC(C)[C@]12O[C@H]1[C@@H]1O[C@]13[C@]1(O[C@H]1C[C@@]1(O)C4=C(CC[C@]31C)C(=O)OC4)[C@@H]2O [LLDT-8, (5R)-5-hydroxytriptolide]
- Left ear ([1]; Table 9, Balb/c mice, dosage 1 mg/kg/d for 2 days, control 49.3): 40.4 mg
- Spleen ([1]; Table 9, Balb/c mice, dosage 1 mg/kg/d for 2 days, control 125.8): 124.4 mg
- Right ear [1, 8]: 35.2 mg
- Ear swelling [1, 8]: 33.8 mg
- Left ear ([1]; Table 10, ICR mice, dosage 0.04 mg/kg, control 75.2): 69.0 mg
- Right ear [1, 9]: 38.2 mg
- Ear swelling [1, 9]: 30.0 mg
- Left ear ([1]; Table 10, ICR mice, dosage 0.2 mg/kg, control 75.2): 68.2 mg
- Right ear [1, 10]: 39.4 mg
- Ear swelling [1, 10]: 24.1 mg
- Left ear ([1]; Table 10, ICR mice, dosage 1 mg/kg, control 75.2): 63.5 mg
- QHS OD value ([2]; Table 11, i.p. 4 times, dosage 0.04 mg/kg, control 0.208): 0.175
- C3 ([2]; Table 11, i.p. 4 times, dosage 0.04 mg/kg, control 16.8): 19.5 μg/10 μl
- Body weight ([2]; Table 11, i.p. 4 times, dosage 0.04 mg/kg, control 23.5): 23.0 g
- Thymus ([2]; Table 11, i.p. 4 times, dosage 0.04 mg/kg, control 39.6): 32.1 mg
- Spleen ([2]; Table 11, i.p. 4 times, dosage 0.04 mg/kg, control 66.4): 74.8 mg/10 g
- Total IgG ([2]; Table 11, i.p. 4 times, dosage 0.04 mg/kg, control 185.5): 176.6 μg/10 μl
- QHS OD value ([2]; Table 11, i.p. 4 times, dosage 0.2 mg/kg, control 0.208): 0.162
- C3 ([2]; Table 11, i.p. 4 times, dosage 0.2 mg/kg, control 16.8): 19.7 μg/10 μl
- Body weight ([2]; Table 11, i.p. 4 times, dosage 0.2 mg/kg, control 23.5): 23.1 g
- Thymus ([2]; Table 11, i.p. 4 times, dosage 0.2 mg/kg, control 39.6): 36.9 mg
- Spleen ([2]; Table 11, i.p. 4 times, dosage 0.2 mg/kg, control 66.4): 76.3 mg/10 g
- Total IgG ([2]; Table 11, i.p. 4 times, dosage 0.2 mg/kg, control 185.5): 165.9 μg/10 μl
- QHS OD value ([2]; Table 11, i.p. 4 times, dosage 1 mg/kg, control 0.208): 0.158
- C3 ([2]; Table 11, i.p. 4 times, dosage 1 mg/kg, control 16.8): 19.4 μg/10 μl
- Body weight ([2]; Table 11, i.p. 4 times, dosage 1 mg/kg, control 23.5): 22.3 g
- Thymus ([2]; Table 11, i.p. 4 times, dosage 1 mg/kg, control 39.6): 36.6 mg
- Spleen ([2]; Table 11, i.p. 4 times, dosage 1 mg/kg, control 66.4): 59.6 mg/10 g
- Total IgG ([2]; Table 11, i.p. 4 times, dosage 1 mg/kg, control 185.5): 182.9 μg/10 μl
- QHS OD value ([2]; Table 12, p.o. 4 times, dosage 0.04 mg/kg, control 0.38): 0.23
- C3 ([2]; Table 12, p.o. 4 times, dosage 0.04 mg/kg, control 7.9): 6.7 μg/10 μl
- Body weight ([2]; Table 12, p.o. 4 times, dosage 0.04 mg/kg, control 23.4): 23.0 g
- Thymus ([2]; Table 12, p.o. 4 times, dosage 0.04 mg/kg, control 28.8): 28.7 mg
- Spleen ([2]; Table 12, p.o. 4 times, dosage 0.04 mg/kg, control 55.7): 69.0 mg/10 g
- Total IgG ([2]; Table 12, p.o. 4 times, dosage 0.04 mg/kg, control 117): 123 μg/10 μl
- QHS OD value ([2]; Table 12, p.o. 4 times, dosage 0.2 mg/kg, control 0.38): 0.34
- C3 ([2]; Table 12, p.o. 4 times, dosage 0.2 mg/kg, control 7.9): 7.9 μg/10 μl
- Body weight ([2]; Table 12, p.o. 4 times, dosage 0.2 mg/kg, control 23.4): 24.0 g
- Thymus ([2]; Table 12, p.o. 4 times, dosage 0.2 mg/kg, control 28.8): 36.6 mg
- Spleen ([2]; Table 12, p.o. 4 times, dosage 0.2 mg/kg, control 55.7): 61.6 mg/10 g
- Total IgG ([2]; Table 12, p.o. 4 times, dosage 0.2 mg/kg, control 117): 116 μg/10 μl
- QHS OD value ([2]; Table 12, p.o. 4 times, dosage 1 mg/kg, control 0.38): 0.24
- C3 ([2]; Table 12, p.o. 4 times, dosage 1 mg/kg, control 7.9): 6.8 μg/10 μl
- Body weight ([2]; Table 12, p.o. 4 times, dosage 1 mg/kg, control 23.4): 23.0 g
- Thymus ([2]; Table 12, p.o. 4 times, dosage 1 mg/kg, control 28.8): 32.5 mg
- Spleen ([2]; Table 12, p.o. 4 times, dosage 1 mg/kg, control 55.7): 63.7 mg/10 g
- Total IgG ([2]; Table 12, p.o. 4 times, dosage 1 mg/kg, control 117): 118 μg/10 μl
- pIC50 [3]: 7.09
- pIC50 [4]: 7.49
- pIC50 [5]: 6.41
- pIC50 [6]: 7.37
- pIC50 [7]: 6.46
